# Reference: ChEMBL document CHEMBL2177034, “Inhibition of hypoxia inducible factor-2 transcription: isolation of active modulators from marine sponges” (J Nat Prod, 2012)
# pEC50, pIC50: −log10 of the molar value. The source made the active and inactive calls. The calls are words filed in the database; no cut-off is given here.
# What was measured:
# [1] = Cytotoxicity against human SK-RC-28 cells expressing HIF1alpha after 2 days by XTT assay; format: functional, cell-based; settings: 48 h
# [2] = test system: 786-0; test: Cytotoxicity against human 786-0 cells expressing HIF2alpha after 2 days by XTT assay; format: functional, cell-based; settings: 786-0, 48 h
# [3] = test system: total protein expression; test: Inhibition of total protein expression in serum deprived human 786-0 cells at 20 uM after 48 hrs relative to control; format: cell-based; settings: 786-0 cells
# [4] = test system: 786-0; test: Inhibition of HIF-mediated VEGFA protein expression in serum deprived human 786-0 cells at 21 uM after 48 hrs relative to control; format: cell-based
# [5] = target: T1, Endothelial PAS domain-containing protein 1 (Homo sapiens, UniProt Q99814); test: Inhibition of HIF2alpha in human 786-0 cells expressing truncated HIF1alpha assessed as reduction in luciferase activity after 24 hrs by reporter gene assay; format: cell-based
# T1 sequence (Q99814 whole entry, the tested form may be a part): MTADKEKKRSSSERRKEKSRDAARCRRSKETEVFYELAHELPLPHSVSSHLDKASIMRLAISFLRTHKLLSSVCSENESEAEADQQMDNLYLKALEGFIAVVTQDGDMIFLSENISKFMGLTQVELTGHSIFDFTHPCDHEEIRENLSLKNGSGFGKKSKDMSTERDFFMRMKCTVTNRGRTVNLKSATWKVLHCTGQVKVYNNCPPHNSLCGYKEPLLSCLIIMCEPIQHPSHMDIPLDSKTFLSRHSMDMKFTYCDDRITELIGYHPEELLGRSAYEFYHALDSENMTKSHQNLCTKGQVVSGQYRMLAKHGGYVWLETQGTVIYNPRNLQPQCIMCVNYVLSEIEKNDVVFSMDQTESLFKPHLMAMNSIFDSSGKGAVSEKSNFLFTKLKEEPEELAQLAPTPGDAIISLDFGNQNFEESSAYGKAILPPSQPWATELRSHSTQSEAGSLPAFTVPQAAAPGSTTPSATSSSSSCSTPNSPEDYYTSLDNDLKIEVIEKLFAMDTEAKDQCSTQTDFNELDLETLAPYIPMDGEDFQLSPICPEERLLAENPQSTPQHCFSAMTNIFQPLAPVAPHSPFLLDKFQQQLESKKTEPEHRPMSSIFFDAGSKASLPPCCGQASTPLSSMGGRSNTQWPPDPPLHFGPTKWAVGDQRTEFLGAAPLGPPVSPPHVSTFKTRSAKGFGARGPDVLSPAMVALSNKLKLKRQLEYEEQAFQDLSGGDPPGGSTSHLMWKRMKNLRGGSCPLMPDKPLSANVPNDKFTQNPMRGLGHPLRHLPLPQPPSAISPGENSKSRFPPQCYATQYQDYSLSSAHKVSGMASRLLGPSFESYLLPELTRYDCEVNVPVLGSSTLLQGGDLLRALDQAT
# [6] = Downregulation of actin mRNA expression in human SK-RC-28 cells expressing HIF2alpha at 21 uM after 48 hrs by RT-PCr analysis; format: ADME, cell-based
# [7] = Downregulation of actin mRNA expression in human RCC4 cells expressing HIF1alpha and HIF2alpha at 21 uM after 48 hrs by RT-PCr analysis; format: ADME, cell-based; settings: rcc4, 48 h
# [8] = test system: 786-0; test: Downregulation of actin mRNA expression in human […] at 21 uM after 48 hrs by RT-PCr analysis; format: ADME, cell-based; settings: 786-0, 48 h
# [9] = Downregulation of HIF2alpha mRNA expression in human SK-RC-28 cells at 21 uM after 48 hrs by RT-PCR analysis; format: functional, cell-based
# [10] = Downregulation of HIF1alpha mRNA expression in human SK-RC-28 cells at 21 uM after 48 hrs by RT-PCR analysis; format: functional, cell-based
# [11] = Downregulation of CCND1 mRNA expression in human SK-RC-28 cells at 21 uM after 48 hrs by RT-PCR analysis; format: functional, cell-based
# [12] = Downregulation of GLUT1 mRNA expression in human SK-RC-28 cells at 21 uM after 48 hrs by RT-PCR analysis; format: functional, cell-based
# [13] = Downregulation of TGFalpha mRNA expression in human SK-RC-28 cells at 21 uM after 48 hrs by RT-PCR analysis; format: functional, cell-based
# [14] = target: Hypoxia-inducible factor 1-alpha (Homo sapiens) (UniProt Q16665); test: Inhibition of HIF1alpha in human SK-RC-28 cells assessed as reduction in VEGFA expression at 21 uM after 48 hrs by RT-PCR analysis; format: cell-based
# Sequence of Hypoxia-inducible factor 1-alpha (Homo sapiens) (Q16665 whole entry, looked up): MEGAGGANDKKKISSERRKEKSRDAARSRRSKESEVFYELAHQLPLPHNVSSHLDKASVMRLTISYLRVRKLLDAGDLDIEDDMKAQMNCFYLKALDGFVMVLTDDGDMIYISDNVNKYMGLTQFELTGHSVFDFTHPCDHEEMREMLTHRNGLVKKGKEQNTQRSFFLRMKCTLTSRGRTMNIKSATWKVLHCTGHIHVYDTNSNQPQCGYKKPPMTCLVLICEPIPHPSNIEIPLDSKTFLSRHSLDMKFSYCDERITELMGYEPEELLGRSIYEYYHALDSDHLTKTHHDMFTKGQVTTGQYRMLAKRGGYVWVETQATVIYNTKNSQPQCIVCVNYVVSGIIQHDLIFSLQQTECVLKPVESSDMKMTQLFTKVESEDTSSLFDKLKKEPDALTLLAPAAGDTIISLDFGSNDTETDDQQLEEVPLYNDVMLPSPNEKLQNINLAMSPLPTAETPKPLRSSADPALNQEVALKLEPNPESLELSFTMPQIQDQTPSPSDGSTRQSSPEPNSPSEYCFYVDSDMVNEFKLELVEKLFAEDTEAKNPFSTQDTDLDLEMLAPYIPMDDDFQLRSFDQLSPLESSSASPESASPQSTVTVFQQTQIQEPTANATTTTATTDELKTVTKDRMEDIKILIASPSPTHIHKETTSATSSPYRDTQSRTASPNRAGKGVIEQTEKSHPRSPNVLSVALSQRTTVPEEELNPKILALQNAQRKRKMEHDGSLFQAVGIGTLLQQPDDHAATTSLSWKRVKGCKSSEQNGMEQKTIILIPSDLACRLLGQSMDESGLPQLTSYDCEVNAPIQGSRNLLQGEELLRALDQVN
# [15] = target: Hypoxia-inducible factor 1-alpha (Homo sapiens) (UniProt Q16665); test: Inhibition of HIF1alpha in human SK-RC-28 cells assessed as reduction in carbonic anhydrase 9 expression at 21 uM after 48 hrs by RT-PCR analysis; format: cell-based
# [16] = Downregulation of HIF2alpha mRNA expression in human RCC4 cells at 21 uM after 48 hrs by RT-PCR analysis; format: functional, cell-based
# [17] = Downregulation of HIF1alpha mRNA expression in human RCC4 cells at 21 uM after 48 hrs by RT-PCR analysis; format: functional, cell-based
# [18] = target: T2, Hypoxia inducible factors; HIF-1-alpha, HIF-2-alpha (Homo sapiens) (UniProt Q16665+Q99814); test: Inhibition of HIF1alpha/2alpha in human RCC4 cells assessed as reduction in VEGFA mRNA expression at 21 uM after 48 hrs by RT-PCR analysis; format: cell-based
# [19] = target: T1, Endothelial PAS domain-containing protein 1; test: Inhibition of HIF2alpha in human RCC4 cells coexpressing HIF1alpha assessed as reduction in CCND1 mRNA expression at 21 uM after 48 hrs by RT-PCR analysis; format: cell-based
# [20] = target: T1, Endothelial PAS domain-containing protein 1; test: Inhibition of HIF2alpha in human RCC4 cells coexpressing HIF1alpha assessed as reduction in GLUT1 mRNA expression at 21 uM after 48 hrs by RT-PCR analysis; format: cell-based
# [21] = target: T1, Endothelial PAS domain-containing protein 1; test: Inhibition of HIF2alpha in human RCC4 cells coexpressing HIF1alpha assessed as reduction in TGFalpha mRNA expression at 21 uM after 48 hrs by RT-PCR analysis; format: cell-based
# [22] = target: Hypoxia-inducible factor 1-alpha (Homo sapiens) (UniProt Q16665); test: Inhibition of HIF1alpha in human RCC4 cells coexpressing HIF2alpha assessed as decrease in carbonic anhydrase 9 mRNA expression at 21 uM after 48 hrs by RT-PCR analysis; format: cell-based
# [23] = test system: 786-0; test: Downregulation of HIF2alpha mRNA expression in human 786-0 cells at 21 uM after 48 hrs by RT-PCR analysis; format: functional, cell-based
# [24] = test system: 786-0; test: Downregulation of HIF1alpha mRNA expression in human 786-0 cells at 21 uM after 48 hrs by RT-PCR analysis; format: functional, cell-based
# [25] = target: T1, Endothelial PAS domain-containing protein 1; test: Inhibition of HIF2alpha in human 786-0 cells assessed as reduction in VEGFA expression at 21 uM after 48 hrs by RT-PCR analysis; format: cell-based
# [26] = target: T1, Endothelial PAS domain-containing protein 1; test: Inhibition of HIF2alpha in human 786-0 cells assessed as reduction in CCND1 mRNA expression at 21 uM after 48 hrs by RT-PCR analysis; format: cell-based
# [27] = target: T1, Endothelial PAS domain-containing protein 1; test: Inhibition of HIF2alpha in human 786-0 cells assessed as reduction in GLUT1 mRNA expression at 21 uM after 48 hrs by RT-PCR analysis; format: cell-based
# [28] = target: T1, Endothelial PAS domain-containing protein 1; test: Inhibition of HIF2alpha in human 786-0 cells assessed as reduction in TGFalpha mRNA expression at 21 uM after 48 hrs by RT-PCR analysis; format: cell-based
# [29] = test system: 786-0; test: Downregulation of carbonic anhydrase 9 expression in human 786-0 cells at 21 uM after 48 hrs by RT-PCR analysis; format: functional, cell-based
# [30] = test system: 786-0; test: Downregulation of HIF1alpha mRNA expression in human 786-0 cells at 79 uM after 48 hrs by RT-PCR analysis; format: functional, cell-based
# [31] = test system: 786-0; test: Upregulation of carbonic anhydrase 9 mRNA expression in human 786-0 cells at 79 uM after 48 hrs by RT-PCR analysis; format: ADME, cell-based; settings: 786-0, 48 h
# [32] = target: T1, Endothelial PAS domain-containing protein 1; test: Inhibition of HIF2alpha in human 786-0 cells assessed as reduction in VEGFA mRNA expression at 79 uM after 48 hrs by RT-PCR analysis; format: cell-based
# [33] = target: T1, Endothelial PAS domain-containing protein 1; test: Inhibition of HIF2alpha in human 786-0 cells assessed as reduction in CCND1 mRNA expression at 79 uM after 48 hrs by RT-PCR analysis; format: cell-based
# [34] = target: T1, Endothelial PAS domain-containing protein 1; test: Inhibition of HIF2alpha in human 786-0 cells assessed as reduction in GLUT1 mRNA expression at 79 uM after 48 hrs by RT-PCR analysis; format: cell-based
# [35] = target: T1, Endothelial PAS domain-containing protein 1; test: Inhibition of HIF2alpha in human 786-0 cells assessed as reduction in TGFalpha mRNA expression at 79 uM after 48 hrs by RT-PCR analysis; format: cell-based
# [36] = Cytotoxicity against human RCC4 cells expressing HIF2alpha and HIF1alpha after 2 days by XTT assay; format: functional, cell-based; settings: RCC4, 48 h
# [37] = test system: 786-0; test: Induction of total protein expression in serum deprived human 786-0 cells at 79 uM after 48 hrs relative to control; format: cell-based; settings: 786-0, 48 h
# [38] = test system: 786-0; test: Induction of HIF-mediated VEGFA expression in serum deprived human 786-0 cells at 79 uM after 48 hrs relative to control; format: cell-based
# [39] = target: Hypoxia-inducible factor 1-alpha (Homo sapiens) (UniProt Q16665); test: Inhibition of HIF1alpha in human SK-RC-28 cells assessed as reduction in VEGFA expression at 79 uM after 48 hrs by RT-PCR analysis; format: cell-based
# [40] = target: Hypoxia-inducible factor 1-alpha (Homo sapiens) (UniProt Q16665); test: Inhibition of HIF1alpha in human SK-RC-28 cells assessed as reduction in carbonic anhydrase expression at 79 uM after 48 hrs by RT-PCR analysis; format: cell-based
# [41] = Downregulation of HIF2alpha mRNA expression in human SK-RC-28 cells at 79 uM after 48 hrs by RT-PCR analysis; format: functional, cell-based
# [42] = Downregulation of HIF1alpha mRNA expression in human SK-RC-28 cells at 79 uM after 48 hrs by RT-PCR analysis; format: functional, cell-based
# [43] = Downregulation of CCND1 mRNA expression in human SK-RC-28 cells at 79 uM after 48 hrs by RT-PCR analysis; format: functional, cell-based
# [44] = Downregulation of GLUT1 mRNA expression in human SK-RC-28 cells at 79 uM after 48 hrs by RT-PCR analysis; format: functional, cell-based
# [45] = Downregulation of TGFalpha mRNA expression in human SK-RC-28 cells at 79 uM after 48 hrs by RT-PCR analysis; format: functional, cell-based
# [46] = Downregulation of HIF2alpha mRNA expression in human RCC4 cells at 79 uM after 48 hrs by RT-PCR analysis; format: functional, cell-based
# [47] = Downregulation of HIF1alpha mRNA expression in human RCC4 cells at 79 uM after 48 hrs by RT-PCR analysis; format: functional, cell-based
# [48] = target: T2, Hypoxia inducible factors; HIF-1-alpha, HIF-2-alpha (Homo sapiens); test: Inhibition of HIF1alpha/2alpha in human RCC4 cells assessed as reduction in VEGFA mRNA expression at 79 uM after 48 hrs by RT-PCR analysis; format: cell-based
# [49] = target: T1, Endothelial PAS domain-containing protein 1; test: Inhibition of HIF2alpha in human RCC4 cells coexpressing HIF1alpha assessed as reduction in CCND1 mRNA expression at 79 uM after 48 hrs by RT-PCR analysis; format: cell-based
# [50] = target: T1, Endothelial PAS domain-containing protein 1; test: Inhibition of HIF2alpha in human RCC4 cells coexpressing HIF1alpha assessed as reduction in GLUT1 mRNA expression at 79 uM after 48 hrs by RT-PCR analysis; format: cell-based
# [51] = target: T1, Endothelial PAS domain-containing protein 1; test: Inhibition of HIF2alpha in human RCC4 cells coexpressing HIF1alpha assessed as reduction in TGFalpha mRNA expression at 79 uM after 48 hrs by RT-PCR analysis; format: cell-based
# [52] = target: Hypoxia-inducible factor 1-alpha (Homo sapiens) (UniProt Q16665); test: Inhibition of HIF1alpha in human RCC4 cells coexpressing HIF2alpha assessed as decrease in carbonic anhydrase 9 mRNA expression at 79 uM after 48 hrs by RT-PCR analysis; format: cell-based
# [53] = test system: 786-0; test: Downregulation of HIF2alpha mRNA expression in human 786-0 cells at 79 uM after 48 hrs by RT-PCR analysis; format: functional, cell-based
structure (smiles),measurement,setting,value
C1=C/[C@H]2[C@@H]3CCCC[C@H]3C[C@@H]2NCCCN[C@@H]2C[C@@H]3CCCC[C@H]3[C@@H]2/C=C/1 [HALICLONADIAMINE],pIC50,[1],4.79
same,pIC50,[2],4.82
same,"inhibition at 48 h, 20 µM",[3],20%
same,inhibition,[4],50%
same,pEC50,[5],4.83
same,Activity,[6],Toxic
same,Activity,[7],Toxic
same,Activity,[8],Toxic
same,Activity,[9],Active
same,Activity,[10],Active
same,Activity,[11],Active
same,Activity,[12],Active
same,Activity,[13],Active
same,inhibition,[14],Active
same,inhibition,[15],Active
same,Activity,[16],Active
same,Activity,[17],Active
same,inhibition,[18],Active
same,inhibition,[19],Active
same,inhibition,[20],Active
same,inhibition,[21],Active
same,inhibition,[22],Active
same,Activity,[23],Active
same,Activity,[24],Active
same,inhibition,[25],Active
same,inhibition,[26],Active
same,inhibition,[27],Active
same,inhibition,[28],Active
same,Activity,[29],Active
C/C=C(/C)C(=O)OCC1C2=C(C=CN1C=O)C(=O)C(C)=C(OC)C2=O (mixture of isomers),Activity,[30],Active
same,Activity,[31],Toxic
same,inhibition,[32],Active
same,inhibition,[33],Active
same,inhibition,[34],Active
same,inhibition,[35],Active
same,pIC50,[1],4.41
same,pIC50,[36],4.58
same,pIC50,[2],4.47
same,Activity,[37],Toxic
same,Activity,[38],Active
same,pEC50,[5],5.57
same,inhibition,[39],inactive
same,inhibition,[40],inactive
same,Activity,[41],inactive
same,Activity,[42],inactive
same,Activity,[43],inactive
same,Activity,[44],inactive
same,Activity,[45],inactive
same,Activity,[46],Active
same,Activity,[47],Active
same,inhibition,[48],Active
same,inhibition,[49],Active
same,inhibition,[50],Active
same,inhibition,[51],Active
same,inhibition,[52],Active
same,Activity,[53],Active
